29 compounds from US20120101136A1, “5-MEMBERED HETEROARYL DERIVATIVES USED AS SPHINGOSINE 1- PHOSPHATE RECEPTOR AGONISTS” (GLAXO GROUP LIMITED, priority 2009, published 2012) can be followed below.

For this assay, the target named is T1, S1P1 receptor (human Endothelial Differentiation Gene 1 (EDG1)) (Homo sapiens, UniProt P21453).
T1 construct: TEV protease site; Gal4-VP16 transcription factor; expressed in transfected cells; host or cells: Tango GPCR-bla U2OS parental cell line (EDG1-bla/U2OS)
T1 sequence (P21453 whole entry, the tested form may be a part): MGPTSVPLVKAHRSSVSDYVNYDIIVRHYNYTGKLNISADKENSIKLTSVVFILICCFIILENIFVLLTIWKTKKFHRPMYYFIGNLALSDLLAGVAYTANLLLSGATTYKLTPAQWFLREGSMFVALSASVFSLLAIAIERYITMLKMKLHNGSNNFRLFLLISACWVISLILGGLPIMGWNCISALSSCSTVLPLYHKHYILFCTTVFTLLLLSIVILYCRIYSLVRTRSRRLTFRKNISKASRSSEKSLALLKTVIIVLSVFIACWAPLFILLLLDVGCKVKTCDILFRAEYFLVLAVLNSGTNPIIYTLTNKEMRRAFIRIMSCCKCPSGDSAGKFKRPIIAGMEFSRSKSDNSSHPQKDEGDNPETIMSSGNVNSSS
Briefly: S1P1 Tango Assay - 384 Well Format (EDG1-bla/U2OS cells). The following applies: agonist, beta-lactamase reporter. The class given is cell-based. As to the method: Recombinant EDG1-bla/U2OS cells (contain the human Endothelial Differentiation Gene 1 (EDG1) linked to a TEV protease site and a Gal4-VP16 transcription factor stably integrated into the Tango GPCR-bla U2OS parental cell line) were harvested from growth medium and passaged into assay medium (Invitrogen Freestyle Expression Medium). The cells were starved for 24 hours at 37° C., 5% CO2, harvested and resuspended in assay medium at a density of ˜200,000 cells/ml.
All test compounds were dissolved in DMSO at a concentration of 10 mM and were prepared in 100% DMSO to provide 10 point dose response curves. Test compounds prepared by Bravo (Velocity 11) were added to wells in columns 2-11 and 13-22; DMSO was added to wells in columns 12 and 23 as unstimulated controls and assay medium was added to wells in columns 1 and 24 as cell-free controls. An S1P1 agonist was added to wells in row 2, columns 2-11 as stimulated controls and test compounds were added to wells in row 2, columns 13-22 and rows 3-15, columns 2-11/13-22 (row 1 and 16 were empty and not used). Compounds in solution were added to the assay plate (Greiner 781090) using an Echo (Labcyte) dose-response program (50 nl/well). The unstimulated and cell-free controls were loaded with 50 nl/well pure DMSO to ensure that the DMSO concentration was constant across the plate for all assays.
50 μl of the cell suspension was added to each well in columns 2-23 of the plate (˜10,000 cells per well). 50 μl of assay medium was added to each well in the cell-free controls (columns 1 and 24). The cells were incubated overnight at 37° C./5% CO2.
10 μl of 6× substrate mixture (LiveBLAzer™-FRET B/G substrate (CCF4-AM) Cat # K1096 from Invitrogen, Inc.) was added to each well using Bravo and the plates incubated at room temperature for 2 h in the dark. The plate was finally read on EnVision using one excitation channel (409 nm) and two emission channels (460 nm and 530 nm).
The blue/green emission ratio (460 nm/530 nm) was calculated for each well, by dividing the background-subtracted Blue emission values by the background-subtracted Green emission values. The dose response curve is based on sigmoidal dose-response model. All ratio data was normalized based upon the maximum emission ratio of positive control and minimum emission ratio of negative control (DMSO) on each plate. The intrinsic activity (IA) of each compound would be the normalized percentage of its maximum response after curve fitting.
The EC50 is the concentration needed to bring the measured effect to its halfway point. The low end stands for greater potency, the high end for weaker potency. In the case of `CCc1cc(OCCCNC)ccc1-c1nnc(-c2ccc(OC(C)C)c(C#N)c2)s1` [Example 13, 5-[5-(2-ethyl-4-{[3-(methylamino)propyl]oxy}phenyl)-1,3,4-thiadiazol-2-yl]-2-[(1-methylethyl)oxy]benzonitrile], the concentration giving a half-maximal response (EC50) was not above 1000 nM. Then `Cc1cc(OCCCC(=O)O)ccc1-c1noc(-c2ccc(OC(C)C)c(Cl)c2)n1` [Example 1, 4-{[4-(5-{3-Chloro-4-[(1-methylethyl)oxy]phenyl}-1,2,4-oxadiazol-3-yl)-3-methylphenyl]oxy}butanoic acid], with not above 0.1 nM; and `CC(C)Oc1ccc(-c2nc(-c3ccc(OCCCCC(=O)O)cc3F)no2)cc1C#N` [Example 11, 5-{[4-(5-{3-Cyano-4-[(1-methylethyl)oxy]phenyl}-1,2,4-oxadiazol-3-yl)-3-fluorophenyl]oxy}pentanoic acid], with not above 1 nM; and `CCc1cc(OCCCCC(=O)O)ccc1-c1noc(-c2ccc(OC(C)C)c(Cl)c2)n1` [Example 29, 5-{[4-(5-{3-chloro-4-[(1-methylethyl)oxy]phenyl}-1,2,4-oxadiazol-3-yl)-3-ethylphenyl]oxy}pentanoic acid], with not above 1 nM. Then `CCc1cc(OCCNC)ccc1-c1noc(-c2ccc(OC(C)C)c(Cl)c2)n1` [Example 26, (2-{[4-(5-{3-chloro-4-[(1-methylethyl)oxy]phenyl}-1,2,4-oxadiazol-3-yl)-3-ethylphenyl]oxy}ethyl)methylamine], with not above 10 nM; and `CC(C)NCCCCOc1ccc(-c2noc(-c3ccc(OC(C)C)c(C#N)c3)n2)c(Cl)c1` [Example 18, 5-{3-[2-chloro-4-({4-[(1-methylethyl)amino]butyl}oxy)phenyl]-1,2,4-oxadiazol-5-yl}-2-[(1-methylethyl)oxy]benzonitrile], with not above 10 nM. Then `CC(C)Oc1ccc(-c2nc(-c3ccc(OCCCC(=O)O)cc3)no2)cc1C#N` [Example 24, 4-{[4-(5-{3-cyano-4-[(1-methylethyl)oxy]phenyl}-1,2,4-oxadiazol-3-yl)phenyl]oxy}butanoic acid], with not above 1 nM. `CCc1cc(OCCCC(=O)O)ccc1-c1nnc(-c2ccc(OC(C)C)c(C#N)c2)s1` [Example 16, 4-{[4-(5-{3-cyano-4-[(1-methylethyl)oxy]phenyl}-1,3,4-thiadiazol-2-yl)-3-ethylphenyl]oxy}butanoic acid]: the EC50 is not above 1 nM. For the compound `CCc1cc(OCCCC(=O)O)ccc1-c1nsc(-c2ccc(OC(C)C)c(C#N)c2)n1` [Example 42, 4-{[4-(5-{3-cyano-4-[(1-methylethyl)oxy]phenyl}-1,2,4-thiadiazol-3-yl)-3-ethylphenyl]oxy}butanoic acid], the EC50 was not above 10 nM. Compound `CCc1cc(OCCCNC)ccc1-c1nnc(-c2ccc(OC(C)C)c(C#N)c2)o1` [Example 14, 5-[5-(2-ethyl-4-{[3-(methylamino)propyl]oxy}phenyl)-1,3,4-oxadiazol-2-yl]-2-[(1-methylethyl)oxy]benzonitrile] had a concentration giving a half-maximal response (EC50) not above 100 nM. Compound `COCCOc1ccc(-c2noc(-c3ccc(OC(C)C)c(Cl)c3)n2)c(C)c1` [Example 6, 5-{3-Chloro-4-[(1-methylethyl)oxy]phenyl}-3-(2-methyl-4-{[2-(methyloxy)ethyl]oxy}phenyl)-1,2,4-oxadiazole] had a half-maximal effective concentration (EC50) not above 10 nM. In turn, `CCc1cc(OCCNC)ccc1-c1noc(-c2ccc(OC(C)C)c(C#N)c2)n1` [Example 33, 5-[3-(2-ethyl-4-{[2-(methylamino)ethyl]oxy}phenyl)-1,2,4-oxadiazol-5-yl]-2-[(1-methylethyl)oxy]benzonitrile] had an EC50 not above 10 nM. Then `CCc1cc(OCCCCC(=O)O)ccc1-c1noc(-c2ccc(OC(C)C)c(C#N)c2)n1` [Example 31, 5-{[4-(5-{3-cyano-4-[(1-methylethyl)oxy]phenyl}-1,2,4-oxadiazol-3-yl)-3-ethylphenyl]oxy}pentanoic acid], with not above 0.1 nM; and `CNCCCOc1ccc(-c2noc(-c3ccc(OC(C)C)c(Cl)c3)n2)c(C)c1` [Example 40, (3-{[4-(5-{3-chloro-4-[(1-methylethyl)oxy]phenyl}-1,2,4-oxadiazol-3-yl)-3-methylphenyl]oxy}propyl)methylamine], with not above 10 nM. The value for `CCNCCCCOc1ccc(-c2noc(-c3ccc(OC(C)C)c(C#N)c3)n2)c(Cl)c1` [Example 20, 5-[3-(2-chloro-4-{[4-(ethylamino)butyl]oxy}phenyl)-1,2,4-oxadiazol-5-yl]-2-[(1-methylethyl)oxy]benzonitrile] was not above 10 nM; that for `CC(C)Oc1ccc(-c2nc(-c3ccc(OCC(=O)O)cc3)no2)cc1C#N` [Example 25, {[4-(5-{3-cyano-4-[(1-methylethyl)oxy]phenyl}-1,2,4-oxadiazol-3-yl)phenyl]oxy}acetic acid] was not above 100 nM. Regarding `CCc1cc(OCC(=O)O)ccc1-c1noc(-c2ccc(OC(C)C)c(Cl)c2)n1` [Example 28, {[4-(5-{3-chloro-4-[(1-methylethyl)oxy]phenyl}-1,2,4-oxadiazol-3-yl)-3-ethylphenyl]oxy}acetic acid], the EC50 is not above 1 nM. The value for `CC(C)Oc1ccc(-c2nc(-c3ccc(OCC(=O)O)cc3F)no2)cc1C#N` [Example 23, {[4-(5-{3-cyano-4-[(1-methylethyl)oxy]phenyl}-1,2,4-oxadiazol-3-yl)-3-fluorophenyl]oxy}acetic acid] was not above 100 nM. Then `CCc1cc(OCCCC(=O)O)ccc1-c1noc(-c2ccc(OC(C)C)c(C#N)c2)n1` [Example 32, 4-{[4-(5-{3-cyano-4-[(1-methylethyl)oxy]phenyl}-1,2,4-oxadiazol-3-yl)-3-ethylphenyl]oxy}butanoic acid], with not above 0.1 nM; and `CNCCCOc1ccc(-c2noc(-c3ccc(OC(C)C)c(C#N)c3)n2)c(Cl)c1` [Example 37, 5-[3-(2-chloro-4-{[3-(methylamino)propyl]oxy}phenyl)-1,2,4-oxadiazol-5-yl]-2-[(1-methylethyl)oxy]benzonitrile], with not above 1 nM. On to `CCc1cc(OCCCC(=O)O)ccc1-c1nc(-c2ccc(OC(C)C)c(C#N)c2)ns1` [Example 41, 4-{[4-(3-{3-cyano-4-[(1-methylethyl)oxy]phenyl}-1,2,4-thiadiazol-5-yl)-3-ethylphenyl]oxy}butanoic acid], for which the half-maximal effective concentration (EC50) is not above 1 nM. Then `CCCNCCCCOc1ccc(-c2noc(-c3ccc(OC(C)C)c(C#N)c3)n2)c(Cl)c1` [Example 19, 5-[3-(2-chloro-4-{[4-(propylamino)butyl]oxy}phenyl)-1,2,4-oxadiazol-5-yl]-2-[(1-methylethyl)oxy]benzonitrile], with not above 10 nM; and `CNCCCCOc1ccc(-c2noc(-c3ccc(OC(C)C)c(C#N)c3)n2)c(Cl)c1` [Example 21, 5-[3-(2-chloro-4-{[4-(methylamino)butyl]oxy}phenyl)-1,2,4-oxadiazol-5-yl]-2-[(1-methylethyl)oxy]benzonitrile], with not above 1 nM; and `CCc1cc(OCCCNC)ccc1-c1cnc(-c2ccc(OC(C)C)c(C#N)c2)s1` [Example 44, 5-[5-(2-ethyl-4-{[3-(methylamino)propyl]oxy}phenyl)-1,3-thiazol-2-yl]-2-[(1-methylethyl)oxy]benzonitrile], with not above 1000 nM. Then `CC(C)Oc1ccc(-c2nc(-c3ccc(OCC(=O)O)cc3Cl)no2)cc1C#N` [Example 9, {[3-Chloro-4-(5-{3-cyano-4-[(1-methylethyl)oxy]phenyl}-1,2,4-oxadiazol-3-yl)phenyl]oxy}acetic acid], with not above 10 nM; and `CCc1cc(OCCCC(=O)O)ccc1-c1cnc(-c2ccc(OC(C)C)c(C#N)c2)s1` [Example 43, 4-{[4-(2-{3-cyano-4-[(1-methylethyl)oxy]phenyl}-1,3-thiazol-5-yl)-3-ethylphenyl]oxy}butanoic acid], with not above 1 nM; and `CNCCOc1ccc(-c2noc(-c3ccc(OC(C)C)c(C#N)c3)n2)c(Cl)c1` [Example 36, 5-[3-(2-chloro-4-{[2-(methylamino)ethyl]oxy}phenyl)-1,2,4-oxadiazol-5-yl]-2-[(1-methylethyl)oxy]benzonitrile], with not above 1 nM. Then `Cc1cc(OCCCCC(=O)O)ccc1-c1noc(-c2ccc(OC(C)C)c(Cl)c2)n1` [Example 2, 5-{[4-(5-{3-Chloro-4-[(1-methylethyl)oxy]phenyl}-1,2,4-oxadiazol-3-yl)-3-methylphenyl]oxy}pentanoic acid], with not above 1 nM; and `CCc1cc(OCCCNC)ccc1-c1noc(-c2ccc(OC(C)C)c(Cl)c2)n1` [Example 35, (3-{[4-(5-{3-chloro-4-[(1-methylethyl)oxy]phenyl}-1,2,4-oxadiazol-3-yl)-3-ethylphenyl]oxy}propyl)methylamine], with not above 10 nM.
